Assay results reported in the supplement of paper PMC10307832.

Key:
Assay in all cases: relative viability (nuclei count vs DMSO), 5 days (fraction); higher = more cells survive
Ponatinib = compound: Cc1ccc(C(=O)Nc2ccc(CN3CCN(C)CC3)c(C(F)(F)F)c2)cc1C#Cc1cnc2cccnn12 [Ponatinib]
Method in brief: (§1)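 Vehicle-anchored 1536-well plates of lung cancer cell lines, held overnight at 37 °C, were pinned with five library-drug doses (not always all listed) spaced by √10. No medium change followed over the next 5 days, after which the cells were fixed, permeabilised and Hoechst-stained together and imaged at 4×. Nuclei were counted with MetaXpress, and viability is treated-well nuclei over vehicle-well nuclei, taken as a median across plates. Plates passed with control CV below 25% and at least one doubling.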

Pazopanib = compound: Cc1ccc(Nc2nccc(N(C)c3ccc4c(C)n(C)nc4c3)n2)cc1S(N)(=O)=O [Pazopanib]
Method in brief: as §1

Ponatinib + Alpelisib = compound: Cc1ccc(C(=O)Nc2ccc(CN3CCN(C)CC3)c(C(F)(F)F)c2)cc1C#Cc1cnc2cccnn12 [Ponatinib] + Cc1nc(NC(=O)N2CCC[C@H]2C(N)=O)sc1-c1ccnc(C(C)(C)C(F)(F)F)c1 [Alpelisib] (partner 2 µM)
Method in brief: (§2)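 Dosing by pin tool came one day after lung cancer cell lines were seeded in 1536-well plates, using either one drug or a fixed anchor-drug dose plus five library-drug doses (not always all listed) in √10 steps. After 5 days, nuclei were counted on 4× images. Relative viability is treated-well nuclei count divided by vehicle-well nuclei count, and values are medians of duplicate plates.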

Pazopanib + Pemetrexed = compound: Cc1ccc(Nc2nccc(N(C)c3ccc4c(C)n(C)nc4c3)n2)cc1S(N)(=O)=O [Pazopanib] + Nc1nc2[nH]cc(CCc3ccc(C(=O)N[C@@H](CCC(=O)O)C(=O)O)cc3)c2c(=O)[nH]1 [Pemetrexed] (partner 0.2 µM)
Method in brief: as §2

Row | Cell Line | relative viability (Ponatinib; 0.002 µM) | relative viability (Ponatinib; 0.006325 µM) | relative viability (Ponatinib; 0.06325 µM) | relative viability (Ponatinib; 0.2 µM) | relative viability (Pazopanib; 0.01 µM) | relative viability (Pazopanib; 0.03162 µM) | relative viability (Pazopanib; 0.1 µM) | relative viability (Pazopanib; 0.3162 µM) | relative viability (Pazopanib; 1 µM) | relative viability (Ponatinib + Alpelisib; first compound 0.002 µM) | relative viability (Ponatinib + Alpelisib; first compound 0.006325 µM) | relative viability (Ponatinib + Alpelisib; first compound 0.06325 µM) | relative viability (Ponatinib + Alpelisib; first compound 0.2 µM) | relative viability (Pazopanib + Pemetrexed; first compound 0.01 µM) | relative viability (Pazopanib + Pemetrexed; first compound 0.03162 µM) | relative viability (Pazopanib + Pemetrexed; first compound 0.1 µM) | relative viability (Pazopanib + Pemetrexed; first compound 0.3162 µM) | relative viability (Pazopanib + Pemetrexed; first compound 1 µM)
1 | 201T | 0.928 | 0.986 | 1.07 | 0.963 | 0.937 | 0.919 | 0.979 | 1.06 | 0.932 | 1.02 | 1.03 | 1.08 | 1.02 | 0.369 | 0.331 | 0.318 | 0.333 | 0.323
2 | A549 | 0.809 | 0.975 | 1.02 | 0.917 | 0.935 | 0.99 | 1.04 | 1.01 | 1.17 | 0.772 | 0.931 | 0.949 | 0.634 |  |  |  |  | 
3 | A-427 | 0.928 | 1.05 | 0.958 | 0.81 | 0.863 | 1.12 | 0.885 | 1 | 1.14 | 1.08 | 1.06 | 1.07 | 0.919 | 0.942 | 1.04 | 0.934 | 1.05 | 1.05
4 | ABC-1 | 0.865 | 0.852 | 0.96 | 0.751 | 0.798 | 0.89 |  | 1.08 | 0.974 | 1.18 | 0.987 | 1.08 | 0.874 |  |  |  |  | 
5 | BEN | 0.765 | 0.967 | 1.01 | 0.847 | 0.729 | 1.1 | 0.929 | 1.05 | 1.05 | 0.948 | 0.977 | 1.08 | 0.916 | 0.67 | 0.803 | 0.706 | 0.8 | 0.834
6 | CAL-12T | 0.929 | 0.951 | 1.15 | 0.97 | 1.15 | 0.99 | 0.986 | 1.02 | 1.13 | 1.03 | 1.12 | 1.46 | 0.979 | 1.13 | 1.3 | 1.37 | 1.08 | 1.26
7 | COR-L23 | 0.887 | 0.941 | 0.97 | 0.876 | 1.13 | 1 | 1.04 | 1.09 | 1.04 | 0.747 | 0.775 | 0.844 | 0.778 | 0.177 | 0.182 | 0.207 | 0.204 | 0.203
8 | COR-L 105 | 1.01 | 0.933 | 1.18 | 1.05 | 1.08 | 0.91 | 0.95 | 1.1 | 1.14 | 0.976 | 0.846 | 1.31 | 0.935 | 1.07 | 1.24 | 1.19 | 1.21 | 1.21
9 | Calu-6 | 0.987 | 0.967 | 1.02 | 0.905 | 0.99 | 1.07 | 1.04 | 1.01 | 0.974 | 0.956 | 1.04 | 1.02 | 0.685 |  |  |  |  | 
10 | ChaGo-K-1 | 0.872 | 0.988 | 1 | 0.88 | 0.927 | 1.01 | 1.04 | 0.99 | 0.978 |  |  |  |  | 0.267 | 0.256 | 0.268 | 0.257 | 0.252
11 | EBC-1 | 0.926 | 1.05 | 1.16 | 0.924 | 1.01 | 1.05 | 0.978 | 0.956 | 1.09 | 0.78 | 0.836 | 0.903 | 0.846 |  |  |  |  | 
12 | IA-LM | 0.872 | 0.903 | 0.953 | 0.802 | 0.935 | 0.995 | 1.03 | 1.05 | 0.918 | 0.756 | 0.657 | 0.828 | 0.722 |  |  |  |  | 
13 | NCI-H522 | 0.816 | 1 | 0.818 | 0.847 | 0.723 | 0.978 | 0.864 | 0.983 | 1.12 |  |  |  |  | 0.842 | 0.83 | 0.956 | 1.09 | 1.02
14 | NCI-H727 | 0.883 | 0.855 | 1.2 | 0.872 | 0.841 | 0.907 | 0.91 | 1 | 1.16 | 0.599 | 0.533 | 0.72 | 0.468 |  |  |  |  | 
15 | NCI-H1299 | 0.997 | 1.02 | 1.02 | 0.931 | 1.02 | 1.03 | 1.03 | 0.993 | 0.95 | 1.04 | 1.09 | 0.987 | 0.935 |  |  |  |  | 
16 | NCI-H1648 | 0.862 | 0.836 | 0.671 | 0.799 | 0.582 | 0.869 | 0.842 | 0.903 | 0.837 |  |  |  |  |  |  | 0.662 | 0.77 | 0.742
17 | NCI-H1650 | 0.915 | 1.05 | 1.22 | 0.891 | 1.05 | 1.02 | 0.954 | 1.12 | 1.16 |  |  |  |  | 0.34 | 0.376 | 0.364 | 0.403 | 0.369
18 | NCI-H1703 | 0.821 | 0.83 | 0.466 | 0.333 | 0.744 | 0.735 | 0.562 | 0.353 | 0.331 | 0.299 | 0.355 | 0.225 | 0.186 |  |  |  |  | 
19 | NCI-H2342 | 0.958 | 0.946 | 1.01 | 0.999 | 0.687 | 0.945 | 0.957 | 0.883 | 0.852 |  |  |  |  | 0.599 | 0.756 | 0.842 | 0.75 | 0.655
20 | SW 900 | 0.817 | 0.783 | 0.889 | 0.794 | 0.796 | 0.902 | 0.762 | 1.12 | 1.2 |  |  |  |  | 0.512 | 0.504 |  | 0.494 | 0.5
